From patent US20130130986A1, “CANCER TREATMENT WITH RECOMBINANT VECTOR” (TOCAGEN INC., priority 2010, published 2013)
No end group written: not given here.

B1: yCD2: human codon optimized yeast cytosine deaminase with substitutions A23L/V108I/I140L (protein, UniProt Q12178 1-158, looked up, variant A23L V108I I140L)
Cytosine deaminase: MVTGGMASKWDQKGMDIAYEEALLGYKEGGVPIGGCLINNKDGSVLGRGHNMRFQKGSATLHGEISTLENCGRLEGKVYKDTTLYTTLSPCDMCTGAIIMYGIPRCVIGENVNFKSKGEKYLQTRGHEVVVVDDERCKKLMKQFIDERPQDWFEDIGE

Experiments:
[1] = system: Tu2449; assay: Thymosin combination therapy in Tu2449/B6C3F1 glioma mouse model, survival; assay type: in vivo; conditions: TA1 200 μg/kg IP SID 28 days added to suboptimal Toca511 (E3) and standard BID 5-FC, FIG. 10
Protocol: Experiments using Thymosin Alpha 1 were performed in conjunction with Toca 511 treatment in the Tu2449/B6C3F1 glioma mouse model (U. Pohle et al. Int J Oncol. 15:829-834 (1999); HM. Smilowitz et al. J. Neurosurg 106:652-659 2007). […] Thymosin Alpha 1 was obtained from Sigma Aldrich cat# T3641 and a stock solution made in sterile water at 400 μg/mL. TA1 (200 μg/kg, […]) was given IP starting on day 7 SID for 28 days.

[2] = system: U-87 cells; assay: yCD2 versus wild type yCD protein level in infected cells (FIG. 4); assay type: cell-based, human; conditions: infected U-87 cells

| Molecule | survival rate [1] | CD protein level [2] |
| --- | --- | --- |
| thymosin alpha 1 (Ac-SDAAVDTSSEITTKDLKEKKEVVEEAEN; listed as Homo sapiens) [Sigma Aldrich cat# T3641] | increased the survival rate to that of the optimal E5 dosing of Toca 511 | – |
| B1 | – | higher levels |
